# Experimental data published in patent publication US6025358A, “Double prodrugs of potent GP IIb/IIIa antagonists” (G. D. Searle & Co., priority 1999, dated 2000).
# Where a name gives a salt, the structure may show the parent alone.
# System: platelet aggregation
# Experiment: Ex vivo screening of oral GP IIb/IIIa inhibitors: inhibition of collagen-induced platelet aggregation in PRP after oral dosing in beagles
# Conditions: Canis lupus familiaris, Platelet, beagle dogs, 5 mpk, n = 2, 32 hours post-dosing, collagen agonist, read-out: Percent inhibition of platelet aggregation at 32 hour post-dosing
# Description: Beagles (8-13 kg, various sources) of either sex are dosed orally with compound in a gelatin capsule. Blood samples are drawn from the cephalic vein using a 23 ga infusion butterfly. Samples for platelet aggregation and drug concentration are taken prior to dosing and 0.5, 1, 2, 3, 5, 7 and 10 hours after dosing and periodically on subsequent days until inhibition of platelet aggregation is less than 30%. Animals are fasted, with ad lib access to water, overnight prior to dosing. For measurement of plasma concentration blood is drawn into a 3 ml tube containing 45 USP units of Na Heparin. Blood is centrifuged at 1700×g for 10 minutes, plasma is aspirated and frozen at -20° C. until analyzed by HPLC. For measurement of platelet aggregation, blood is drawn into 2 2.0 ml tubes containing 0.2 ml of 3.8% Na Citrate. Blood is centrifuged at 250×g for 6 minutes and the platelet rich plasma (PRP) is aspirated. The remaining blood is centrifuged at 1700×g for 10 minutes and platelet poor plasma (PPP) is aspirated. Platelet aggregation is performed in a Bio-Data PAP-4 aggregometer (Bio-Data Corp., Havertown, Pa.) using collagen (100 μg/ml final concentration; Helena Laboratories, Beaumont, Tex.) as the agonist. Briefly, baseline (100% aggregation) is set using PPP; PRP is incubated at 37° C. for one minute without stirring and one minute with stirring, agonist is added and aggregation is allowed to develop for 4 minutes. Percent aggregation post-dosing is compared to percent aggregation pre-dosing to determine percent inhibition.
# Percent inhibition of platelet aggregation at 32 hour post-dosing in
# beagle dogs (5 mpk, n = 2)
row,SMILES,inhibition in vivo at 5 mg/kg
1,"CC(C)OC(=O)CCNC(=O)N[C@H]1CCN(c2ccc(C(N)=NO)cc2)C1=O [1(b), N-[[[(3S)-1-[4-[(hydroxyamino)iminomethyl]phenyl]-2-oxo-3-pyrrolidinyl]amino]carbonyl]-β-alanine 1-methylethyl ester monohydrochloride]",71%
2,"CCCOC(=O)CCNC(=O)N[C@H]1CCN(c2ccc(C(N)=NO)cc2)C1=O [1(c), N-[[[(3S)-1-[4-[(hydroxyamino)iminomethyl]phenyl]-2-oxo-3-pyrrolidinyl]amino]carbonyl]-β-alanine propyl ester monohydrochloride]",94%
3,"CC(C)COC(=O)CCNC(=O)N[C@H]1CCN(c2ccc(C(N)=NO)cc2)C1=O [1(d), N-[[[(3S)-1-[4-[(hydroxyamino)iminomethyl]phenyl]-2-oxo-3-pyrrolidinyl]amino]carbonyl]-β-alanine 2-methylpropyl ester monohydrochloride]",45%
4,"CC(C)(C)COC(=O)CCNC(=O)N[C@H]1CCN(c2ccc(C(N)=NO)cc2)C1=O [1(f), N-[[[(3S)-1-[4-[(hydroxyamino)iminomethyl]phenyl]-2-oxo-3-pyrrolidinyl]amino]carbonyl]-β-alanine 2,2-dimethylpropyl ester]",87%
5,"CCCCCOC(=O)CCNC(=O)N[C@H]1CCN(c2ccc(C(N)=NO)cc2)C1=O [1(h), N-[[[(3S)-1-[4-[(hydroxyamino)iminomethyl]phenyl]-2-oxo-3-pyrrolidinyl]amino]carbonyl]-β-alanine pentyl ester monohydrochloride]",39%
6,"COC(=O)CCNC(=O)N[C@H]1CCN(c2ccc(C(=N)NOC(=O)NCCN(C)C)cc2)C1=O [3(b), N-[[[(3S)-1-[4-(1-imino-8-methyl-4-oxo-3-oxa-2,5,8-triazanon-1-yl)phenyl]-2-oxo-3-pyrrolidinyl]amino]carbonyl]-β-alanine methyl ester]",54%
7,"CN1CCN(C(=O)ONC(=N)c2ccc(N3CC[C@H](NC(=O)NCCC(=O)OC4CCCCC4)C3=O)cc2)CC1 [3(cc), N-[[[(3S)-1-[4-[imino[[[(4-methyl-1-piperazinyl)carbonyl]oxy]amino]methyl]phenyl]-2-oxo-3-pyrrolidinyl]amino]carbonyl]-β-alanine cyclohexyl ester dihydrochloride monohydrate]",22%
8,"CCOC(=O)CCNC(=O)N[C@H]1CCN(c2ccc(C(=N)NOC(=O)N(C)CCN(C)C)cc2)C1=O [3(e), N-[[[(3S)-1-[4-(1-imino-5,8-dimethyl-4-oxo-3-oxa-2,5,8-triazanon-1-yl)phenyl]-2-oxo-3-pyrrolidinyl]amino]carbonyl]-β-alanine ethyl ester dihydrochloride]",54%
9,"CCOC(=O)CCNC(=O)N[C@H]1CCN(c2ccc(C(=N)NOC(=O)NCCN(C)C)cc2)C1=O [3(f), N-[[[(3S)-1-[4-(1-imino-8-methyl-4-oxo-3-oxa-2,5,8-triazanon-1-yl)phenyl]-2-oxo-3-pyrrolidinyl]amino]carbonyl]-β-alanine ethyl ester monoacetate]",35%
10,"CCCCCOC(=O)CCNC(=O)N[C@H]1CCN(c2ccc(C(=N)NOC(=O)N3CCN(C)CC3)cc2)C1=O [3(ff), N-[[[(3S)-1-[4-[imino[[[(4-methyl-1-piperazinyl)carbonyl]oxy]amino]methyl]-phenyl]-2-oxo-3-pyrrolidinyl]amino]carbonyl]-β-alanine pentyl ester dihydrochloride]",70%
11,"CCOC(=O)CCNC(=O)N[C@H]1CCN(c2ccc(C(=N)NOC(=O)N(C)CCCN(C)C)cc2)C1=O [3(g), N-[[[(3S)-1-[4-(1-imino-5,9-dimethyl-4-oxo-3-oxa-2,5,9-triazadec-1-yl)phenyl]-2-oxo-3-pyrrolidinyl]amino]carbonyl]-β-alanine ethyl ester dihydrochloride]",69%
12,"CC(C)OC(=O)CCNC(=O)N[C@H]1CCN(c2ccc(C(=N)NOC(=O)N3CCN(C)CC3)cc2)C1=O [3(h), N-[[[(3S)-1-[4-[imino[[[(4-methyl-1-piperazinyl)carbonyl]oxy]amino]methyl]phenyl]-2-oxo-3-pyrrolidinyl]amino]carbonyl]-β-alanine 1-methylethyl ester dihydrochloride]",56%
13,"CC(C)OC(=O)CCNC(=O)N[C@H]1CCN(c2ccc(C(=N)NOC(=O)NCCN(C)C)cc2)C1=O [3(j), N-[[[(3S)-1-[4-(1-imino-8-methyl-4-oxo-3-oxa-2,5,8-triazanon-1-yl)phenyl]-2-oxo-3-pyrrolidinyl]amino]carbonyl]-β-alanine 1-methylethyl ester monoacetate]",34%
14,"CCCOC(=O)CCNC(=O)N[C@H]1CCN(c2ccc(C(=N)NOC(=O)N3CCN(C)CC3)cc2)C1=O [3(l), N-[[[(3S)-1-[4-[imino[[[(4-methyl-1-piperazinyl)carbonyl]oxy]amino]methyl]phenyl]-2-oxo-3-pyrrolidinyl]amino]carbonyl]-β-alanine propyl ester dihydrochloride]",71%
15,"CCCOC(=O)CCNC(=O)N[C@H]1CCN(c2ccc(C(=N)NOC(=O)N(C)CCN(C)C)cc2)C1=O [3(m), N-[[[(3S)-1-[4-(1-imino-5,8-dimethyl-4-oxo-3-oxa-2,5,8-triazanon-1-yl)phenyl]-2-oxo-3-pyrrolidinyl]amino]carbonyl]-β-alanine propyl ester dihydrochloride]",80%
16,"CCCOC(=O)CCNC(=O)N[C@H]1CCN(c2ccc(C(=N)NOC(=O)NCCN(C)C)cc2)C1=O [3(n), N-[[[(3S)-1-[4-(1-imino-8-methyl-4-oxo-3-oxa-2,5,8-triazanon-1-yl)phenyl]-2-oxo-3-pyrrolidinyl]amino]carbonyl]-β-alanine propyl ester monoacetate monohydrate]",73%
17,"CC(C)COC(=O)CCNC(=O)N[C@H]1CCN(c2ccc(C(=N)NOC(=O)N(C)CCN(C)C)cc2)C1=O [3(q), N-[[[(3S)-1-[4-(1-imino-5,8-dimethyl-4-oxo-3-oxa-2,5,8-triazanon-1-yl)phenyl]-2-oxo-3-pyrrolidinyl]amino]carbonyl]-β-alanine 2-methylpropyl ester dihydrochloride]",57%
18,"CC(C)COC(=O)CCNC(=O)N[C@H]1CCN(c2ccc(C(=N)NOC(=O)NCCN(C)C)cc2)C1=O [3(r), N-[[[(3S)-1-[4-(1-imino-8-methyl-4-oxo-3-oxa-2,5,8-triazanon-1-yl)phenyl]-2-oxo-3-pyrrolidinyl]amino]carbonyl]-β-alanine 2-methylpropyl ester monoacetate]",46%
19,"CCCCOC(=O)CCNC(=O)N[C@H]1CCN(c2ccc(C(=N)NOC(=O)N(C)CCN(C)C)cc2)C1=O [3(u), N-[[[(3S)-1-[4-(1-imino-5,8-dimethyl-4-oxo-3-oxa-2,5,8-triazanon-1-yl)phenyl]-2-oxo-3-pyrrolidinyl]amino]carbonyl]-β-alanine butyl ester dihydrochloride]",63%
20,"CCOC(=O)CCNC(=O)N[C@H]1CCN(c2ccc(C(N)=NOC(=O)N(C)C)cc2)C1=O [4(a), N-[[[(3S)-1-[4-[[[[(dimethylamino)carbonyl]oxy]amino]iminomethyl]phenyl]-2-oxo-3-pyrrolidinyl]amino]carbonyl]-β-alanine ethyl ester]",63%
21,"CC(C)OC(=O)CCNC(=O)N[C@H]1CCN(c2ccc(C(N)=NOC(=O)N(C)C)cc2)C1=O [4(b), N-[[[(3S)-1-[4-[[[[(dimethylamino)carbonyl]oxy]amino]iminomethyl]phenyl]-2-oxo-3-pyrrolidinyl]amino]carbonyl]-β-alanine 1-methylethyl ester]",20%
22,"CCCOC(=O)CCNC(=O)N[C@H]1CCN(c2ccc(C(N)=NOC(=O)N(C)C)cc2)C1=O [4(c), N-[[[(3S)-1-[4-[[[[(dimethylamino)carbonyl]oxy]amino]iminomethyl]phenyl]-2-oxo-3-pyrrolidinyl]amino]carbonyl]-β-alanine propyl ester]",64%
23,"CCOC(=O)CCNC(=O)N[C@H]1CCN(c2ccc(C(N)=NOC(N)=O)cc2)C1=O [5(a), N-[[[(3S)-1-[4-[[[(aminocarbonyl)oxy]amino]iminomethyl]phenyl]-2-oxo-3-pyrrolidinyl]amino]carbonyl]-β-alanine ethyl ester]",82%

# Same assay, conditions: beagle dogs, 5 mpk, n = 2, 26 hours post-dosing, collagen agonist
row,SMILES,% inhibition of platelet aggregation @ 26 hours
1,"COC(=O)CCNC(=O)N[C@H]1CCN(c2ccc(C(=N)NOC(=O)N(C)CCN(C)C)cc2)C1=O.Cl [3(a), N-[[[(3S)-1-[4-(1-imino-5,8-dimethyl-4-oxo-3-oxa-2,5,8-triazanon-1-yl)phenyl]-2-oxo-3-pyrrolidinyl]amino]carbonyl]-β-alanine methyl ester monohydrochloride]",33%
2,"CCOC(=O)CCNC(=O)N[C@H]1CCN(c2ccc(C(=N)NOC(=O)N3CCN(C)CC3)cc2)C1=O.Cl.Cl [3(d), N-[[[(3S)-1-[4-[imino[[[(4-methyl-1-piperazinyl)carbonyl]oxy]amino]methyl]phenyl]-2-oxo-3-pyrrolidinyl]amino]carbonyl]-β-alanine ethyl ester dihydrochloride]",88%
